Reference: ChEMBL document CHEMBL5543168, “Discovery of Urea Derivatives of Celastrol as Selective Peroxiredoxin 1 Inhibitors against Colorectal Cancer Cells” (J Med Chem, 2024)
Activity calls are given as the source filed them. No cut-off for these calls is given here.

Experiments:
Peroxiredoxin-6 = target: T1, Peroxiredoxin-6 (Homo sapiens, UniProt P30041); assay: Inhibition of recombinant PRDX6 (unknown origin) using H2O2 as substrate preincubated for 0.5 hrs followed by substrate addition by TRX-TrxR-NADPH coupling assay
T1 sequence (P30041 whole entry): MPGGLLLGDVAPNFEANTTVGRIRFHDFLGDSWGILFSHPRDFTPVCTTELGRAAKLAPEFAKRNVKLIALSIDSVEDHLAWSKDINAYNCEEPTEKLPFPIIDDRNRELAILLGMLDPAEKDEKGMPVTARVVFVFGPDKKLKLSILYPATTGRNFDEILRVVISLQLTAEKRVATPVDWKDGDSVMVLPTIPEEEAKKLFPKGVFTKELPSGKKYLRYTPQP

SW-620 [1] = assay: Induction of apoptosis in human SW620 cells assessed as increase in Cyt C level incubated for 48 hrs by Western blot analysis; format: functional, cell-based; settings: dose 0.25-2 µM
SW-620 [2] = assay: Induction of cell cycle arrest at G2 phase in human SW620 cells at 0.5 uM incubated for 24 hrs by PI staining based flow cytometry (reference value: 6.77 %); format: functional
SW-620 [3] = assay: Induction of mitochondrial membrane potential depolarization in human SW620 cells assessed as JC-1-stained red cells upto 2 uM incubated for 48 hrs by flow cytometry (reference value: 89.8 %); format: functional; settings: up to 2 µM
[4] = AUC (0 to infinity) in mouse at 2 mg/kg, iv measured for 24 hrs by LC-MS/MS analysis; format: ADME, organism-based; settings: in vivo
[5] = target: T2, Thioredoxin-dependent peroxide reductase, mitochondrial (Homo sapiens, UniProt P30048); assay: Inhibition of recombinant PRDX3 (unknown origin) using H2O2 as substrate preincubated for 0.5 hrs followed by substrate addition by TRX-TrxR-NADPH coupling assay
T2 sequence (P30048 whole entry): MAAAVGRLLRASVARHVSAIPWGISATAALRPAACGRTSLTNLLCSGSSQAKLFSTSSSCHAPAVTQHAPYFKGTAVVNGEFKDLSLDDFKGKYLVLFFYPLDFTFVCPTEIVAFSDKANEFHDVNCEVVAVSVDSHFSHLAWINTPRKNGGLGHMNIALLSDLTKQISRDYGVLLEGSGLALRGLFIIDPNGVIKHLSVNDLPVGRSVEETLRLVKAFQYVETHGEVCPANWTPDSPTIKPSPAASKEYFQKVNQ

SW-620 [6] = assay: Anti-proliferative activity against human SW620 cells xenografted in BALB/c nude mouse at 2 mg/kg, ip qd for 16 days by TUNEL analysis; format: functional, organism-based; settings: time 16.0 day
SW-620 [7] = assay: Inhibition of cell viability in human SW620 cells incubated for 72 hrs by Cell Titer Glo assay; format: functional, cell-based; settings: SW-620, 72 h
SW-620 [8] = assay: Induction of mitochondrial membrane potential depolarization in human SW620 cells assessed as JC-1-stained green cells upto 2 uM incubated for 48 hrs by flow cytometry (reference value: 8.9 %); format: functional; settings: up to 2 µM
[9] = Cmax in mouse at 2 mg/kg, iv measured for 24 hrs by LC-MS/MS analysis; format: ADME, organism-based; settings: in vivo
SW-620 [10] = assay: Antitumor activity against human SW620 cells xenografted in BALB/c nude mouse at 2 mg/kg, ip qd for 16 days relative to control; format: functional; settings: SW-620, 384 h, time 16 day, read-out: TGI
[11] = Selectivity ratio of IC50 for mouse […] cells to IC50 for human HCT-116 cells; format: functional
[12] = AUC (0 to t) in mouse at 2 mg/kg, iv measured for 24 hrs by LC-MS/MS analysis; format: ADME, organism-based; settings: in vivo
HCT-116 = assay: Inhibition of cell viability in human HCT-116 cells incubated for 72 hrs by Cell Titer Glo assay; format: functional, cell-based; settings: HCT-116, 72 h
[13] = Toxicity in BALB/c nude mouse xenografted with human SW620 cells assessed as body weight loss at 2 mg/kg, ip qd for 16 days; format: organism-based, SW-620; settings: in vivo, 384 h, time 16 day
SW-620 [14] = assay: Induction of mitochondrial membrane potential depolarization in human SW620 cells assessed as decrease in JC-1-stained red cells incubated for 48 hrs by flow cytometry; format: functional, cell-based; settings: dose 0.5-2 µM
[15] = Clearance in mouse at 2 mg/kg, iv measured for 24 hrs by LC-MS/MS analysis; format: ADME, organism-based; settings: in vivo
Peroxiredoxin-1 = target: T3, Peroxiredoxin-1 (Homo sapiens, UniProt Q06830); assay: Binding affinity to CM5 sensor chip-immobilized recombinant PRDX1 (unknown origin) assessed as dissociation constant by SPR analysis
T3 sequence (Q06830 whole entry): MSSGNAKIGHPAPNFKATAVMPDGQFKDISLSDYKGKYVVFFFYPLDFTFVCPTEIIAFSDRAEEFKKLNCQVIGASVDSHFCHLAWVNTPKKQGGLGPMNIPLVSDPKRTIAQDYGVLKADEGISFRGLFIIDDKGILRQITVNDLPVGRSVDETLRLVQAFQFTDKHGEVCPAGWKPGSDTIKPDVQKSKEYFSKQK

SW-620 [16] = assay: Induction of cell cycle arrest at G1 phase in human SW620 cells at 2 uM incubated for 24 hrs by PI staining based flow cytometry (reference value: 32.4 %); format: functional
SW-620 [17] = assay: Induction of mitochondrial membrane potential depolarization in human SW620 cells assessed as decrease in fluorescence intensity ratio of JC1-stained aggregates to monomers incubated for 48 hrs by CLSM analysis; format: functional, cell-based; settings: dose 0.5-2 µM
[18] = Acute toxicity in C57BL/[…] 6J mouse assessed as pathological change in spleen at 20 mg/kg, ip measured for 2 weeks by H and E staining based analysis; format: organism-based; settings: in vivo, 336 h
[19] = Antiproliferative activity against human LX2 cells; format: toxicity, cell-based, LX-2
[20] = Acute toxicity in C57BL/[…] 6J mouse assessed as body weight loss at 20 mg/kg, ip measured for 2 weeks; format: organism-based; settings: in vivo, 336 h
[21] = Acute toxicity in C57BL/[…] 6J mouse assessed as pathological change in kidney at 20 mg/kg, ip measured for 2 weeks by H and E staining based analysis; format: organism-based; settings: in vivo, 336 h
[22] = Selectivity ratio of IC50 for HEK293T cells to IC50 for human SW620 cells; format: functional
[23] = Acute toxicity in C57BL/[…] 6J mouse assessed as pathological change in liver at 20 mg/kg, ip measured for 2 weeks by H and E staining based analysis; format: organism-based; settings: in vivo, 336 h
Peroxiredoxin-2 = target: T4, Peroxiredoxin-2 (Homo sapiens, UniProt P32119); assay: Inhibition of recombinant PRDX2 (unknown origin) using H2O2 as substrate preincubated for 0.5 hrs followed by substrate addition by TRX-TrxR-NADPH coupling assay
T4 sequence (P32119 whole entry): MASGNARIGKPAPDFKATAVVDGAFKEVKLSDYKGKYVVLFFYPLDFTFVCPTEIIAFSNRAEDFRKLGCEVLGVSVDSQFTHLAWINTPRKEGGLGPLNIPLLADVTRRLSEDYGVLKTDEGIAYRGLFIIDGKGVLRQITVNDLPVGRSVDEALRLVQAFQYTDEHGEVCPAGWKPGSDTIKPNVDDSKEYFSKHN

SW-620 [24] = assay: Induction of mitochondrial membrane potential depolarization in human SW620 cells assessed as increase in green fluorescence incubated for 48 hrs by JC1-staining based CLSM analysis; format: functional, cell-based; settings: dose 0.5-2 µM
[25] = target: T5, Peroxiredoxin-1 (Homo sapiens) (UniProt Q06830)
T5 sequence (whole entry): T3 sequence (Q06830 whole entry)
Description: Binding affinity to recombinant PRDX1 (unknown origin)assessed as change in melting temperature by protein thermal shift assay

With COC(=O)C1(NC(=O)N[C@]2(C)CC[C@]3(C)CC[C@]4(C)C5=CC=C6C(=CC(=O)C(O)=C6C)[C@]5(C)CC[C@@]4(C)[C@@H]3C2)CCC1 the IC50 (Peroxiredoxin-6) was over 50000 nM, the Activity (SW-620 [1]) was “Dose-Dependent Effect” and the Activity (SW-620 [2]) was 7.05%. For the same compound, the Activity (SW-620 [3]) was 39.2%, the AUC(0-inf) [4] was 403 ng·h/mL and the IC50 [5] was over 50000 nM. For the same compound, the Activity (SW-620 [6]) was “Active”, the IC50 (SW-620 [7]) was 320 nM and the Activity (SW-620 [8]) was 54.6%. For the same compound, the Cmax [9] was 203 ng/mL, the inhibition in vivo at 2 mg/kg (SW-620 [10]) was 45.4% and the Selectivity ratio [11] was 2. The AUC(0-t) at 24 h [12] was 364 ng·h/mL, the IC50 (HCT-116) was 440 nM and the Activity [13] was “Non-Toxic”. The Activity (SW-620 [14]) was “Dose-Dependent Effect”, the clearance [15] was 83.1 mL/min/kg and the Kd (Peroxiredoxin-1) was 370 nM. For the same compound, the Activity (SW-620 [16]) was 29.2%, the Activity (SW-620 [17]) was “Dose-Dependent Effect” and the Activity [18] was “Non-Toxic”. For the same compound, the IC50 [19] was about 1000 nM, the Activity [20] was “Non-Toxic” and the Activity [21] was “Non-Toxic”. The Selectivity ratio [22] was 2, the Activity [23] was “Non-Toxic” and the IC50 (Peroxiredoxin-2) was over 50000 nM. The Activity (SW-620 [24]) was “Dose-Dependent Effect” and the ΔTm [25] was -7.5 °C.
